Results: article PMC6102074 (European journal of medicinal chemistry, 2018)
Converted amounts (≈) assume the structure as drawn.

Legend:
[1] = Pion's μSOL assay for kinetic solubility; type: physicochemical
[2] = kinetic solubility analysis in PBS solution; type: physicochemical
rat microsome stability = details: microsomes
VEGF = details: human monocyte leukemia cells (THP1); previously reported, ref [9], [17]; cited from earlier work
[3] = after 60 minutes

## CCOc1ccccc1C(=O)Nc1ncccc1C(=O)Nc1cccc(S(=O)(=O)C(F)(F)F)c1 [Compound 49, 2-(2-Ethoxybenzamido)-N-(3-((trifluoromethyl)sulfonyl)phenyl)nicotinamide]
[1]
  solubility: < 1 µM

## O=C(Nc1ccccc1C(=O)Nc1ccccc1C(=O)NCc1ccco1)c1ccco1 [Compound 1]
physchem
  solubility kinetic: 1.6 µg/mL (≈ 3.73 µM)

## CCOc1ccccc1C(=O)Nc1ccccc1C(=O)Nc1cccc(S(=O)(=O)C(F)(F)F)c1 [Compound 63, 2-Ethoxy-N-(2-((3-((trifluoromethyl)sulfonyl)phenyl)carbamoyl)phenyl)benzamide]
[2]
  solubility: < 1.1 µM

## CCOc1ccccc1C(=O)Nc1cnccc1C(=O)Nc1cccc(S(=O)(=O)C(F)(F)F)c1 [Compound 50, 3-(2-Ethoxybenzamido)-N-(3-((trifluoromethyl)sulfonyl)phenyl)isonicotinamide]
[1]
  solubility: < 1 µM

## CC(C)Oc1ccccc1C(=O)Nc1ccccc1C(=O)Nc1cccc(S(=O)(=O)C(F)(F)F)c1 [Compound 65, 2-Isopropoxy-N-(2-(3-(trifluoromethylsulfonyl)phenylcarbamoyl)phenyl)benzamide]
Rat microsome stability
  half-life: 28.2 min
VEGF
  activation of VEGF transcription: activate the transcription

## 3-(Cyclohexanecarboxamido)-N-(3-(trifluoromethyl)phenyl)-benzamide [Compound 3]
[3]
  parent remaining in mouse liver microsomes: 70%
